Experimental data: patent US10556865B2, “Synergistic herbicidal composition containing certain pyridine or pyrimidine carboxylic acids and certain cereal and rice herbicides” (Dow AgroSciences, LLC, priority 2007, dated 2020)
Where “and” joins values, the source holds several entries; their conditions need not be identical. Identical values can stand only once.

Assays:
Type in all cases: in vivo
[1] = system: Leptochloa chinensis (L.) NEES (LEFCH); test: Postemergence herbicidal mixtures for weed control in direct seeded rice (greenhouse, visual % injury)
[2] = system: Eleocharis kuroguwai OHWI (ELOKU); test: Herbicidal mixtures for weed control in transplanted paddy rice (in-water application, visual % injury)
Protocol: (§1) Weed seeds or nutlets of the desired test plant species were planted in puddled soil (mud) prepared by mixing a non-sterilized mineral soil (28 percent silt, 18 percent clay, and 54 percent sand, with a pH of about 7.3 to 7.8 and an organic matter content of about 1.0 percent) and water at a ratio of 100 kilograms (kg) of soil to 19 L of water. The prepared mud was dispensed in 250 mL aliquots into 480 mL non-perforated plastic pots with a surface area of 91.6 square centimeters leaving a headspace of 3 centimeters in each pot. Rice seeds were planted in Sun Gro MetroMix® 306 planting mixture, which typically has a pH of 6.0 to 6.8 and an organic matter content of about 30 percent, in plastic plug trays. Seedlings at the second or third leaf stage of growth were transplanted into 650 mL of mud contained in 960 mL non-perforated plastic pots with a surface area of 91.6 cm^2 4 days prior to herbicide application. The paddy was created by filling the 3 centimeter headspace of the pots with water. When required to ensure good germination and healthy plants, a fungicide treatment and/or other chemical or physical treatment was applied. The plants were grown for 4-14 days in a greenhouse with an approximate 14 hr photoperiod which was maintained at about 29° C. during the day and 26° C. during the night. Nutrients were added as Osmocote (17:6:10, N:P:K+minor nutrients) at 2 g per cup. Water was added on a regular basis to maintain the paddy flood, and supplemental lighting was provided with overhead metal halide 1000-Watt lamps as necessary. The plants were employed for testing when they reached the second or third true leaf stage.
(§2) Treatments consisted of esters or salts of compound A, compound C, or compound D and various herbicidal components alone and in combination. For technical grade compounds, a weighed amount, determined by the highest rate to be tested, was placed in an individual 120 mL glass vial and was dissolved in 20 mL of acetone to obtain concentrated stock solutions. […] The concentrated stock solutions obtained were diluted with 20 mL of an aqueous mixture containing 2.5% Agri-dex crop oil concentrate (v/v). For formulated compounds, a measured amount, determined by the highest rate to be tested, was placed in an individual 120 mL glass vial and was dissolved in 20 mL of 2.5% (v/v) Agri-dex crop oil concentrate to obtain concentrated stock solutions. The concentrated stock solutions obtained were diluted with 20 mL of acetone. Applications were made by injecting an appropriate amount of the stock solution into the aqueous layer of the paddy. Control plants were treated in the same manner with the solvent blank. All treated plant material received the same concentration of acetone and crop oil concentrate.
(§3) Forms of compounds A, C, and D were applied on an acid equivalent basis. Other herbicidal components were applied on an active ingredient basis and included acetolactate synthase (ALS)-inhibiting herbicides penoxsulam (triazolopyrimidine chemical class) applied as Grasp SC, […] (sulfonylurea chemical class) applied as Sirius G, and bensulfuron-methyl (sulfonylurea chemical class) applied as Londax; acetyl CoA carboxylase (ACCase) inhibiting herbicides cyhalofop-butyl applied as Clincher G and fenoxaprop-p-ethyl applied as Ricestar HT; auxinic herbicide quinclorac applied as Facet 75 DF; phytoene desaturase inhibiting herbicide norflurazon; and p-hydroxyphenylpyruvate dioxygenase (HPPD) inhibiting herbicide sulcotrione applied as Mikado.
(§4) The treated plants and control plants were placed in a greenhouse as described above and water was added as needed to maintain a paddy flood. After 3 weeks the condition of the test plants as compared with that of the untreated plants was determined visually and scored on a scale of 0 to 100 percent where 0 corresponds to no injury and 100 corresponds to complete kill.

Cyperus species (CYPSS) = test: as above
Protocol: as §1, §2, §3, §4

[3] = system: Leptochloa chinensis (L.) NEES (LEFCH); test: as above
Protocol: as §1, §2, §3, §4

[4] = system: Fimbristylis miliacea (L.) VAHL (FIMMI); test: as above
Protocol: as §1, with “When required to ensure good germination and healthy plants, a fungicide treatment and/or other chemical or physical treatment was applied.” left out
as §2, §3, §4

[5] = system: Echinochloa species (ECHSS); test: Herbicidal mixtures for weed control in transplanted paddy rice (in-water application, visual % injury after 3 weeks)
Protocol: as §1, §2, §3, §4

[6] = system: Cyperus esculentus L. (CYPES); test: Postemergence herbicidal mixtures for weed control in direct seeded rice (greenhouse, visual % injury); details: alone 17.5 g/ha
[7] = system: Ipomoea hederacea (L.) JACQ. (IPOHE); test: Postemergence herbicidal mixtures for weed control in direct seeded rice (greenhouse, visual % injury after 3 weeks)
[8] = system: Polygonum pensylvanicum L. (POLPY); test: Postemergence herbicidal mixtures for weed control in direct seeded rice (greenhouse, visual % injury)
[9] = system: Polygonum persicaria L. (POLPE); test: as above
Cyperus iria L. (CYPIR) = test: as above

COC(=O)c1ccccc1CS(=O)(=O)NC(=O)Nc1nc(OC)cc(OC)n1 [Bensulfuron-methyl]
% Injury LEFCH Ob ([1]; alone 4.38 g/ha): 20%
% Injury LEFCH Ob ([1]; alone 8.75 g/ha): 0%
% Injury Ob ([2]; 35 g/ha alone): 20%
% Injury Ob ([2]; 70 g/ha alone): 70%
% Injury Ob (Cyperus species (CYPSS); CYPES, 4.38 g/ha alone): 40%
% Injury Ob (Cyperus species (CYPSS); CYPES, 8.75 g/ha alone): 50%
% Injury Ob ([3]; 35 g/ha alone): 15%
% Injury Ob ([3]; 70 g/ha alone): 30%
% Injury Ob ([4]; 35 g/ha alone): 10%
% Injury Ob ([4]; 70 g/ha alone): 50%
% Injury Ob ([5]; ECHCG, 70 g/ha alone): 45% and 70%
% Injury Ob ([5]; ECHCO, 35 g/ha alone): 20%
% Injury Ob ([5]; ECHCO, 70 g/ha alone): 30%

COc1cnc(OC)n2nc(NS(=O)(=O)c3c(OCC(F)F)cccc3C(F)(F)F)nc12 [Penoxsulam]
% Injury LEFCH Ob ([1]; alone 17.5 g/ha): 0%
% Injury LEFCH Ob ([1]; alone 35 g/ha): 0%
% Injury CYPES Ob [6]: 10%
% Injury Ob ([2]; 8.75 g/ha alone): 0%
% Injury Obs ([2]; 8.75 g/ha alone): 0%
% Injury Ob (Cyperus species (CYPSS); CYPES, 8.75 g/ha alone): 40%
% Injury Ob (Cyperus species (CYPSS); CYPIR, 8.75 g/ha alone): 70%
% Injury Ob ([3]; 8.75 g/ha alone): 0%
% Injury Ob ([3]; 17.5 g/ha alone): 15%
% Injury Ob ([3]; 35 g/ha alone): 20%
% Injury IPOHE Ob ([7]; alone 4.38 g/ha): 70%
% Injury IPOHE Ob ([7]; alone 8.75 g/ha): 60%
% Injury Ob ([5]; ECHCG, 4.38 g/ha alone): 70%

COC(=O)c1nc(-c2ccc(Cl)c(OC)c2Cl)cc(N)c1Cl [Compound C Methyl]
% Injury POLPY Ob ([8]; alone 8.75 g/ha): 10%
% Injury POLPY Ob ([8]; alone 17.5 g/ha): 15%
% Injury POLPE Ob ([9]; alone 35 g/ha): 85%
% Injury POLPE Ob ([9]; alone 70 g/ha): 100%
% Injury LEFCH Ob ([1]; alone 4.38 g/ha): 0%
% Injury CYPES Ob [6]: 65% and 100%
% Injury Ob ([3]; 17.5 g/ha alone): 0%
% Injury Ob ([3]; 35 g/ha alone): 0%
% Injury Ob ([3]; 70 g/ha alone): 0%
% Injury IPOHE Ob ([7]; alone 4.38 g/ha): 40%
% Injury IPOHE Ob ([7]; alone 17.5 g/ha): 50% and 40%
% Injury IPOHE Ob ([7]; alone 70 g/ha): 85%
% Injury CYPIR Ob (Cyperus iria L. (CYPIR); alone 8.75 g/ha): 25%
% Injury CYPIR Ob (Cyperus iria L. (CYPIR); alone 35 g/ha): 40%
% Injury Ob ([5]; ECHCG, 4.38 g/ha alone): 0%
% Injury Ob ([5]; ECHCG, 8.75 g/ha alone): 0%
% Injury Ob ([5]; ECHCG, 17.5 g/ha alone): 0%
% Injury Ob ([5]; ECHCG, 35 g/ha alone): 10%
